Assay results: patent US8124357B2 (priority 2005, dated 2012)

Tested on: Neuro-2A cells
Format: cell-based

Q: With `CC1=C(/C=C/C(C)=C/C=C/C(C)=C/C(=O)O)C(C)(C)CCC1` [all trans retinoic acid, All Trans-Retinoic acid] as the molecule, how does the “BoNT/A SNAP25197-cleavage product (uptake of BoNT/A) after differentiation reagent” value read?
A: Its value is “increase”.
